Measurements from patent US20260174786A1, “A NITROGEN-CONTAINING SPIROCYCLIC COMPOUND, PHARMACEUTICAL COMPOSITION AND USE THEREOF” (Prime Gene Therapeutics Co., Ltd., priority 2022, published 2026).

Experiments:
hTRPV3 = target: T1, hTRPV3 (Homo sapiens, UniProt Q8NET8); test: Whole cell patch clamp inhibition rate test on HEK-293 cells instantaneously expressing TRPV3; type: cell-based; details: HEK293
T1 construct: expressed in transfected cells; host or cells: HEK-293
T1 sequence (Q8NET8 1-790): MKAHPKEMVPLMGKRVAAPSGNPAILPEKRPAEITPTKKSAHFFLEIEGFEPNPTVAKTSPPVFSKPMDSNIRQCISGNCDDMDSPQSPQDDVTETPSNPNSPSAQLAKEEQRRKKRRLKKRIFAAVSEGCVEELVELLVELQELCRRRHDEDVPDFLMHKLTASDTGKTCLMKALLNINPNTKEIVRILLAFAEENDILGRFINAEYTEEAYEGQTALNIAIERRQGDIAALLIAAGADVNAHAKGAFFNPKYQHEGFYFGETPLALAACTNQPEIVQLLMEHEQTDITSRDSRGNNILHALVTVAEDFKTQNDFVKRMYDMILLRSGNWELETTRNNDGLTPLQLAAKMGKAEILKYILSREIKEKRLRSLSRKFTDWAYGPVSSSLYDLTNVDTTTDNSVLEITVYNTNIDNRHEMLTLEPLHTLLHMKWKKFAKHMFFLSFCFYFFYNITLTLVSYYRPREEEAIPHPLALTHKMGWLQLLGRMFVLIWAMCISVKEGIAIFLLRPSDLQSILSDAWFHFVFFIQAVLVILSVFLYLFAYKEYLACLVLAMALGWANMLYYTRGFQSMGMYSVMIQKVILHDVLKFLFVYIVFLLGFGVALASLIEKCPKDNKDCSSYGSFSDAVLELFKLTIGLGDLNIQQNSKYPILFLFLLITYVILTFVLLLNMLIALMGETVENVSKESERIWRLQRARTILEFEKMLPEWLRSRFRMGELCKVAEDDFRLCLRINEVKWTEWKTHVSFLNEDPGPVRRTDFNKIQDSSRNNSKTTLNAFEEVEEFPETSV
Method in brief: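 HEK-293 cells transiently transfected with TRPV3, recorded next-but-one day by whole-cell patch clamp at room temperature: holding −80 mV, ramp −100 to 100 mV over 100 ms every 5 s, peak current monitored. Ascending concentrations perfused, 5 min each; each cell its own control, at least two cells per concentration.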

[1] = Parallel artificial membrane permeability test (Lipid PAMPA); type: in vitro ADME; details: for recovery at 16 h, 10 μM: pH 7.4, test concentration 10 μM, read-out: rate of recovery %; for −LOG Pe / Papp at 16 h, 10 μM: test concentration 10 μM; for Papp at 16 h, 10 μM: pH 7.4, 16 hours, read-out: Effective penetration rate Pe
Protocol: 1. Preparing the test compound in 10 mM DMSO and diluting 1000 fold to 10 μM with PBS. 2. Ultrasonic treating lecithin in dodecane at a rate of 18 mg/ml. 3. Adding 300 μL/well of 10 μM test compound solution into the donor chamber (bottom) in triplicate. 4. Adding 5 μL/well lecithin/dodecane to the receptor chamber (top), and then adding 300 μL/well PBS (pH=7.4) to the receptor chamber within 10 minutes. 5. Transferring 50 μL of 10 μM test compound onto a sample plate containing 200 μL of cold methanol, with IS * being C0. 6. Inserting the receptor chamber into the donor chamber and incubating at 25° C. for 16 hours. 7. After 16 hours of incubation, transferring 50 μL from the receptor and donor compartments to a sample plate containing 200 μL of cold methanol and IS *. 8. Centrifuging the sample plate at 4° C. and 3220 g for 40 minutes. 9. Transferring 100 μL of supernatant to an analysis plate containing an appropriate volume of H2O for LC-MS/MS analysis. 10. Data analysis.

hTRPV4 = hTRPV4 (Homo sapiens, UniProt Q9HBA0); test: Inhibition rate on different hTRPs: hTRPV4; type: cell-based
[2] = hTRPV3, single concentration 0.3 μM

hTRPV4, sequence (Q9HBA0 whole entry): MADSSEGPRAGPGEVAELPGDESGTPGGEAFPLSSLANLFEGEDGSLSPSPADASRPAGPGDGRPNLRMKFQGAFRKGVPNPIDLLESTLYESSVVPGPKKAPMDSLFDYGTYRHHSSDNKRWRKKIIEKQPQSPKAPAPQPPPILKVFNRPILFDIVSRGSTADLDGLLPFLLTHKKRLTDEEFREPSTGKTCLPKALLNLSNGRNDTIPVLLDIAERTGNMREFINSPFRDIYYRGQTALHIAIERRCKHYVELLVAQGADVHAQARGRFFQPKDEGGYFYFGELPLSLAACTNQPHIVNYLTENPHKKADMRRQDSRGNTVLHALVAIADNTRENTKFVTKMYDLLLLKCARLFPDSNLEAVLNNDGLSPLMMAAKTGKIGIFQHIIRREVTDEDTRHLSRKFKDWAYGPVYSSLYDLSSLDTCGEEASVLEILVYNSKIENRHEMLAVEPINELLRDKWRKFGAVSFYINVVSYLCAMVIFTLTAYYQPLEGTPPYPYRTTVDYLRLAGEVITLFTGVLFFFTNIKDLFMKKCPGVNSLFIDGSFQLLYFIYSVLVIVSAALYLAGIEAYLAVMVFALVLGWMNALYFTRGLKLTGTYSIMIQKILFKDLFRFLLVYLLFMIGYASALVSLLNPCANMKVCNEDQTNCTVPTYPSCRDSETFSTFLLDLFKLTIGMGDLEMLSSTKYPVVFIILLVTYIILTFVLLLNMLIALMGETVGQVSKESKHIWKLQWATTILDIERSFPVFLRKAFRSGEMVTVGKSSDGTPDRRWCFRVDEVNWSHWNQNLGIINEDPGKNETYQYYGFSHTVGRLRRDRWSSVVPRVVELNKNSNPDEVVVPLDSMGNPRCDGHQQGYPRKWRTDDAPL

inhibition at 0.3 µM (hTRPV3; [2]) [%]	recovery at 16 h, 10 μM [1] [%]	−LOG Pe [1]	Papp at 16 h, 10 μM [1] [×10⁻⁶ cm/s]	inhibition at 0.3 µM (hTRPV3; hTRPV3, 0.3 μM) [%]	inhibition at 0.3 µM (hTRPV4; hTRPV4, 0.3 μM) [%]	Selectivity ratio (hTRPV4; inhibition rate on TRPV3 / inhibition rate on hTRPV4, 0.3 μM) [X]	Structure (SMILES)
70 to 100	16.9	4.85	14.1				O=C(c1ccc(F)cn1)N1CCC2(CC(O)c3cc(-c4ccccc4C4CC4)ccc32)C1 (centres unmarked) [Example 15, (5-(2-cyclopropylphenyl)-3-hydroxy-2,3-dihydrospiro[indene-1,3′-pyrrolidine]-1′-yl)(5-fluoropyridin-2-yl) ketone]
70 to 100	18.8	4.79	16.3	89.6	29.3	3.1	O=C(c1ccc(F)cn1)N1CC[C@@]2(C[C@@H](O)c3cc(-c4ccccc4C4CC4)ccc32)C1 [Example 21, ((1S,3R)-5-(2-cyclopropylphenyl)-3-hydroxy-2,3-dihydrospiro[indene-1,3′-pyrrolidine]-1′-yl)(5-fluoropyridin-2-yl)ketone]
